Tests used:
[1] = tested on: Smooth muscle cells (SMC) derived from the aortic tunica media of stroke-prone spontaneously hypertensive rats (SHRSP); test: Study 2 on arteriosclerosis capability: propagation of smooth muscle cells of the tunica media; assay type: cell-based; conditions: 0.1 to 30 μmol/liter, five days; for smooth muscle cell propagating capability, number of cells (Determination A, FIG. 5): 10% FBS; for smooth muscle cell propagating capability, number of cells (Determination B, FIG. 6): with 20 ng/ml PDGF
Procedure: The object of the study is to investigate the effect of the above-described concentrated material of the present invention in terms of preventing propagation of smooth muscle cells of the tunica media of the blood vessels, which is one factor in arteriosclerosis.
1) Smooth muscle cells (SMC) derived from the aortic tunica media of stroke-prone spontaneously hypertensive rats (SHRSP) were prepared by the explant method, and five generations were cultivated.
2) After inoculating 10,000 well SMC in a 24-well plate, the cells were rinsed in the subconfluent state with DMEM medium containing 10% FBS at 37° C. and in the presence of 5% CO2. [The medium] was replaced with DMEM medium containing 0.4% albumin (phenol red-free) and cultivated for 48 hours.
3) Genistein (referred to hereafter as Gen), daidzein (referred to hereafter as Dai), glycitein (referred to hereafter as Gly), and the concentrated material of the present invention were each added to DMEM culture medium (phenol red-free) containing 10% FBS (charcoal-treated) to a concentration of 0.1 to 30 μmol/liter and cultivated for five days. Then, the number of cells was determined with a Coulter counter (referred to hereafter as Determination A).
4) The number of cells was determined by adding 20 ng/ml PDGF in accordance with the method 3) described above (referred to as Determination B).

[2] = tested on: chicks; test: Study 1 on immune-activating capability: number of deaths during rearing of chicks; assay type: in vivo; conditions: administered to comparison group after three weeks
Procedure: The object of the study is to investigate the immune-activating capability based on the number of deaths during rearing of chicks.
6,200 young chicks immediately after hatching were grouped into a comparison group and a study group each. The comparison group was provided conventional feed to which Bacillus subtilus (0.1 wt %) was added, and the study group was provided conventional feed to which the product (0.1 wt %) of propagation of lactic acid bacteria (Enterococcus faesium) as useful microorganisms in pulse crops of the present invention was added, and the number of deaths of chicks at one week, two weeks, three weeks, and four weeks of age was compared.

O=c1c(-c2ccc(O)cc2)coc2cc(O)ccc12 [Dai, daidzein]
smooth muscle cell propagating capability, number of cells (Determination A, FIG. 5) [1]: cell-reducing effect
smooth muscle cell propagating capability, number of cells (Determination B, FIG. 6) [1]: cell-reducing effect

O=c1c(-c2ccc(O)cc2)coc2cc(O)cc(O)c12 [Gen, Genistein]
smooth muscle cell propagating capability, number of cells (Determination A, FIG. 5) [1]: cell-reducing effect
smooth muscle cell propagating capability, number of cells (Determination B, FIG. 6) [1]: cell-reducing effect

CC1(C)S[C@@H]2[C@H](NC(=O)[C@H](N)c3ccccc3)C(=O)N2[C@H]1C(=O)O [ampicillin]
increase in deaths of chicks after antibiotic administration [2]: an increase in deaths could not be prevented

Reference: patent publication US20030185853A1, “Arteriosclerosis-preventing material, immune-activating material, vertebrate that has eaten such materials, and eggs thereof” (Nichimo Co., Ltd., priority 1999, published 2003)
